Data set [1] concerns SSTR2. Kind of data set: Spectral flow cytometry, SSTR2 positive cells, iPSCUSP48MV organoids. It counts as cell-based, human. To be noted: 48 h, FIGS. 8A, E. As to the method: (§1) Sonic Hedgehog (SHH) was withdrawn from the organoid growth media 16 hours prior to treatment. The experimental treatment groups included: vehicle (Veh), mifepristone (500 nM, Selleckchem S2606), GANT61 (5 μM, Stemcell Technologies 73692), ketoconazole (Keto, 10 μM, Selleckchem S1353), pasireotide (Pas, 100 nM, Target Mol TP2207-SB001), octreotide (Oct, 100 nM, Selleckchem P1017), mifepristone plus GANT61, mifepristone plus Keto, mifepristone plus Pas, relacorilant (500 nM, Corcept Therapeutics CORT125134), relacorilant plus Pas, relacorilant plus Oct, or dexamethasone (Dexa, 100 nM, SIGMA S4902). In the combination treatments, cultures were pretreated with the GANT61, Keto, Pas or Oct for 2 hours prior to treatment with mifepristone or Rela. PitNET tissue derived organoids hPITO36, hPITO37, hPITO38, hPITO39, and hPITO40 were treated with the following experimental conditions: Vehicle (1), pasireotide (2), relacorilant (3), relacorilant & pasireotide (4), mifepristone (5), mifepristone & pasireotide (6). The IC50 values used for each hPITO line for each drug were determined based on dose responses (FIG. 12). All organoid cultures were treated for 48 hours prior to analysis.
(§2) The multicolor flow cytometry antibody panel was designed using the Cytek® Full Spectrum Viewer online tool to calculate the similarity index. Organoids were harvested in cold Serum-Free Defined Medium media and incubated with Zombie (BioLegend 423107, 1:100) for 15 minutes in the dark at room temperature, followed by incubation with fluorochrome-conjugated/unconjugated primary surface or cytoplasmic antibodies (Table 6) at 4° C. for 30 minutes. Cells were then washed with Cell Staining Buffer (BioLegend 420-201) and incubated at 4° C. for 30 minutes with secondary antibodies (Table 6). Cells were fixed using Cytofix/Cytoperm™ Fixation/Permeabilization Solution (BD Biosciences 554714) and washed with Fixation/Permeabilization wash buffer according to the recommended protocol. […] Data was acquired using the Cytek® Aurora, analyzed using Cytobank Premium software (Beckman Coulter).

The test system of data set [2] is SSTR5. In words: Spectral flow cytometry, SSTR5 positive cells, iPSCUSP48MV organoids. The format is cell-based, human. To be noted: 48 h, FIGS. 8B, F. As to the method: as §1, §2
For data set [3], the system named is SSTR2. In words: Spectral flow cytometry, SSTR2 positive cells, hPITOs. It counts as cell-based, human. The following applies: hPITO, 48 h, FIGS. 9E, F. An excerpt: (§3) 1.3 Generation and Culture of Human PitNET Tissue Organoids (hPITOs)
(§4) Patients undergoing planned transsphenoidal surgery for PitNETs were identified in the outpatient neuroendocrinology and neurosurgery clinics and collected by the St. Joseph's Hospital and Barrow Neurological Institute Biobank under the collection protocol PHXA-05TS038, and outcomes data protocol PHXA-0004-72-29 with approval of the Institutional Review Board (IRB) and patient consent. De-identified samples were shipped in collection and transport media (Table 3) to the Zavros laboratory (University of Arizona) for processing within 24 hours of collection. Resected PitNET tissues were washed with Dulbeccos Phosphate Buffered Saline (DPBS) supplemented with 1× Penicillin/Streptomycin, 1× Kanamycin and 1× Amphotericin/Gentamycin, minced into smaller pieces, and incubated with digestion buffer (Dulbecco's Modified Eagle Medium/Nutrient Mixture F-12 (DMEM/F12) supplemented with 0.4% Collagenase 2, 0.1% Hyaluronic Acid, 0.03% Trypsin). The tissue was incubated with Accutase (Thermo Fisher Scientific) for a further 5 minutes, and the cells were pelleted and washed with DPBS supplemented with antibiotics. Dissociated cells were then seeded as Matrigel™ domes in culture dishes and overlaid with growth media (Table 4). Media was replaced every 3 days and organoids were harvested for downstream experiments or passaged after 15 days of culture (FIG. 1B).
(§5) Sonic Hedgehog (SHH) was withdrawn from the organoid growth media 16 hours prior to treatment. […] The IC50 values used for each hPITO line for each drug were determined based on dose responses (FIG. 12). […]

In data set [4] the test system is SSTR5. In words: Spectral flow cytometry, SSTR5 positive cells, hPITOs. The following applies: hPITO, 48 h, FIGS. 9G. The format is cell-based, human.
From the text: as §3, §4, §5

The test system of another data set is hPITO. Kind of data set: Spectral flow cytometry, Zombie positive cells (cell death), hPITOs. It counts as cell-based, human. The following applies: 48 h, FIGS. 9K, L.
From the text: as §3, §4, §1
The multicolor flow cytometry antibody panel was designed using the Cytek® Full Spectrum Viewer online tool to calculate the similarity index. Organoids were harvested in cold Serum-Free Defined Medium media and incubated with Zombie (BioLegend 423107, 1:100) for 15 minutes in the dark at room temperature, followed by incubation with fluorochrome-conjugated/unconjugated primary surface or cytoplasmic antibodies (Table 6) at 4° C. for 30 minutes. Cells were then washed with Cell Staining Buffer (BioLegend 420-201) and incubated at 4° C. for 30 minutes with secondary antibodies (Table 6). Cells were fixed using Cytofix/Cytoperm™ Fixation/Permeabilization Solution (BD Biosciences 554714) and washed with Fixation/Permeabilization wash buffer according to the recommended protocol. […]

Data set [5] relates to patients with Cushing's syndrome. The following applies: cited from earlier work; for tumor regression / tumor growth: CD patients, pituitary macroadenomas/corticotroph tumors; for ACTH levels in patients / cortisol levels in patients: patients with Cushing's syndrome/CD.
Another data set has as its system progesterone receptor. The following applies: cited from earlier work.

Entries after “also recorded” stand apart in the source; their conditions may differ.

On to `CC#C[C@]1(O)CC[C@H]2[C@@H]3CCC4=CC(=O)CCC4=C3[C@@H](c3ccc(N(C)C)cc3)C[C@@]21C` [mifepristone, 11β-(4-dimethylaminophenyl)-17ß-hydroxy-17α-(1-propynyl)-estra-4,9-dien-3-one], for which, in the data set on SSTR2 [1], the “magnitude of SSTR2 induction, mifepristone vs relacorilant” value is “significantly greater than that of relacorilant” and the “percentage of SSTR2 positive cells” value was “significant increase”. The “percentage of SSTR5 positive cells” value in the data set with SSTR5 [2] is reported as “significant increase”. Further, in the data set with SSTR2 [3], the “magnitude of SSTR2 induction, mifepristone vs relacorilant” value is reported as “significantly greater than that of relacorilant” and the “percentage of SSTR2 positive cells” value is given as “significant increase”. In addition, the “percentage of SSTR5 positive cells” value in the data set with SSTR5 [4] is reported as “significant increase”. The “cell death (Zombie positive cells)” value in the data set with hPITO was “not observed”. Moreover, in data set [5], the “tumor regression / tumor growth” value is listed as “not been observed; also recorded: without tumor growth”, the “ACTH levels in patients” value was “increases ACTH; also recorded: raises ACTH (and thus cortisol) levels” and the “cortisol levels in patients” value is reported as “concomitant increase in cortisol secretion; also recorded: raises ACTH (and thus cortisol) levels”. For the same molecule, the “hyperglycemia secondary to hypercortisolism” value in data set [5] (patients with CD) is listed as “significantly improves hyperglycemia”. The side effects entry in data set [5] (patients) is “significant side effects in some patients; also recorded: endometrial thickening and vaginal bleeding”. Moreover, the “binding to the progesterone receptor” value in the data set on progesterone receptor is recorded as “binding to the progesterone receptor”.

`Cn1cc(S(=O)(=O)N2CCC3=Cc4c(cnn4-c4ccc(F)cc4)C[C@]3(C(=O)c3cc(C(F)(F)F)ccn3)C2)cn1` [relacorilant, (R)-(1-(4-fluorophenyl)-6-((1-methyl-1H-pyrazol-4-yl)sulfonyl)-4,4a,5,6,7,8-hexahydro-1H-pyrazolo[3,4-g]isoquinolin-4a-yl) (4-(trifluoromethyl)pyridin-2-yl) methanone]: the “percentage of SSTR2 positive cells” value in the data set with SSTR2 [1] is given as “significant increase”. Also, in the data set on SSTR5 [2], the “magnitude of SSTR5 induction, relacorilant vs mifepristone” value is recorded as “significantly greater than that of mifepristone” and the “percentage of SSTR5 positive cells” value was “significant increase”. In addition, in the data set on SSTR2 [3], the “percentage of SSTR2 positive cells” value is reported as “significant increase”. Further, in the data set with SSTR5 [4], the “magnitude of SSTR5 induction, relacorilant vs mifepristone” value was “significantly greater than that of mifepristone” and the “percentage of SSTR5 positive cells” value is “significant increase; also recorded: significantly upregulated”. For the same molecule, in the data set on hPITO, the “cell death (Zombie positive cells)” value is on record as “significant increase in cell death”; the “cell death in epithelial/mesenchymal hybrid cell population (CK20, vimentin, CXCR4)” value is “significant cell death”; the “cell death in populations expressing stem cell markers SOX2, CXCR4 and nestin” value is on record as “significant cell death”. In the data set with hPITO (listed as Relacorilant), the “cell death (Zombie positive cells)” value is recorded as “Induces Tumor Cell Death; also recorded: significant increase in Zombie positive cells”. In addition, in data set [5], the “tumor regression / tumor growth” value is on record as “induce tumor regression in some CD patients”, the “ACTH levels in patients” value is listed as “did not significantly raise ACTH or cortisol levels” and the “cortisol levels in patients” value is listed as “did not significantly raise ACTH or cortisol levels”. In addition, the tumor regression entry in data set [5] (macroadenomas, treated for three months, imaging of the pituitary gland) is listed as “tumor regression in two patients”. Further, in data set [5] (phase 2 study, patients with Cushing's syndrome), the “effects of excess cortisol on hypertension and insulin resistance” value was “reversed the effects of excess cortisol on hypertension and insulin resistance”. For the same molecule, the “binding to the progesterone receptor” value in the data set with progesterone receptor is recorded as “no detectable binding”.

The record behind these values is US20260325504A1, “Genetically Engineered Human Pituitary Corticotroph Tumor Organoids Exhibit Divergent Responses to Selective Glucocorticoid Receptor Modulators” (Corcept Therapeutics Incorporated, priority 2022, published 2026).
